In patent US10894808B2, “Polypeptide ligands specific for plasma kallikrein” (BicycleRD Limited, priority 2013, dated 2021):
Like-named read-outs stand apart in the source and are kept apart here. *1 amine or outer side, *2 acyl side, *3 side chain or, on linkers, in order; H or OH if unused. Where a SMILES comes first, the peptide text is derived from it. Bridges are numbered along the chain shown (N, C = ends). [ ]: non-standard residue; d: D form. TBMB = c1c(C[*:1])cc(C[*:3])cc1C[*:2]; hArg = N=C(N)NCCCC[C@H](N)C(=O)O; Aze = O=C(O)[C@@H]1CCN1; Sar = CNCC(=O)O

What was measured:
[1] = molecular target: T1, biotinylated human plasma kallikrein (Homo sapiens, UniProt P03952); test: Homogeneous plate-based screening assay of TBMB-cyclised phage clones (signal:background); type: binding
T1 construct: The human kallikrein is non-recombinant and therefore the heavy chain is present; purchased Innovative Research, Novi, Mich., USA IHPKA; host or cells: from human plasma
T1 sequence (P03952 391-638 limits assumed): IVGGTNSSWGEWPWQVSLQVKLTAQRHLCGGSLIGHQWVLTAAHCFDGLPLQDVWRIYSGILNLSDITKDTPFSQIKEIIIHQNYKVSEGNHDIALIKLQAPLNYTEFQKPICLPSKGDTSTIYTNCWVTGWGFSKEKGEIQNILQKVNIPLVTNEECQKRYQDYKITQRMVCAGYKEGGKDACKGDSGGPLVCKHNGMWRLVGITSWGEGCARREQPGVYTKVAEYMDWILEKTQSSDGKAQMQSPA
T1 sequence (P03952 20-390 partner limits assumed): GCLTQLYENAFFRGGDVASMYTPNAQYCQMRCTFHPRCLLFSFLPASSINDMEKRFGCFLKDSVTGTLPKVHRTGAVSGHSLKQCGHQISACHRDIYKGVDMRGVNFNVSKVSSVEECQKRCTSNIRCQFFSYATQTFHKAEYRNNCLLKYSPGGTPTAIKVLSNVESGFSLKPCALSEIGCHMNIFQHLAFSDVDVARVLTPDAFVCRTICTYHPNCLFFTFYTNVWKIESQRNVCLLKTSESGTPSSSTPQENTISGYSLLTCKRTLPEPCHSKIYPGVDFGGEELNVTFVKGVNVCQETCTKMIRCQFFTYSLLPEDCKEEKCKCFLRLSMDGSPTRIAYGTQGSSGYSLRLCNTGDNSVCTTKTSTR
Description: Assay of binding of individual clones: Library transformant colonies were picked at random and grown as individual cultures in 2TY broth containing selective antibiotic. The picked colonies were DNA-sequenced using a QIAgen PyroMark Q96 DNA sequencer to reveal the amino-acid substitution present in each clone. Where isolated, a clone of each unique substitution was assayed for human plasma kallikrein binding as follows. The phage-containing supernatant was harvested from the culture and phage were cyclised with tris bromomethyl benzene (TBMB) based on the methods of Heinis et al (Nature Chemical Biology vol. 5 pp 502-507 (2009)). The purified phage from this process were assayed for binding to biotinylated human plasma kallikrein using a homogeneous plate-based binding assay; assay read-out measured on a BMG Labtech Pherastar FS plate reader. The quantitative binding data from triplicate assay samples was averaged (mean) and expressed as signal:background (where background was a sample assayed with no target material). The signal:background was expressed as a % of the parallel parent sample. Error bars denote standard deviation of the mean. Assays shown are representative of at least 2 independent experiments. The assay data was correlated with the peptide sequences. Substitutions marked in grey were not tested (a clone was not isolated from the random library sampling). A sample of a non-binding (arbitrary) bicycle was assayed in parallel to illustrate the assay baseline.
Assay of binding of individual clones: Library transformant colonies, or selection output colonies, were picked and grown as individual cultures in 2TY broth containing selective antibiotic. The picked colonies were DNA-sequenced using a QIAgen PyroMark Q96 DNA sequencer to reveal the amino-acid substitution present in each clone, and were assayed for human plasma kallikrein binding as follows. The phage-containing supernatant was harvested from the culture and phage were cyclised with tris-bromomethylbenzene (TBMB) based on the methods of Heinis et al (Nature Chemical Biology vol. 5 pp 502-507 (2009)). The purified phage from this process were assayed for binding to biotinylated human plasma kallikrein using a homogeneous plate-based binding assay; assay read-out measured on a BMG Labtech Pherastar FS plate reader. The quantitative binding data from duplicate assay samples was averaged (mean) and expressed as signal:background. Assay data shown is representative of at least 2 independent experiments. The assay data was correlated with the peptide sequences.

human plasma kallikrein = molecular target: T2, human plasma kallikrein (Homo sapiens, UniProt P03952); test: Functional enzyme assay, inhibition of human plasma kallikrein (Z-PheArg-AMC substrate); type: biochemical
T2 construct: purchased Stratech, UK
T2 sequence (P03952 391-638 limits assumed): as the sequence (P03952 391-638 limits assumed) above
T2 sequence (P03952 20-390 partner limits assumed): as the sequence (P03952 20-390 partner limits assumed) above
Description: (§1) Functional enzyme assays were conducted in 10 mM Tris HCl, 150 mM NaCl, 10 mM MgCl2, 1 mM CaCl2 and 1 mg/mL BSA (all Sigma UK) pH 7.4 at 25° C. in solid black 96 or 384 well plates. […] Release of AMC was measured using a Pherastar FS (BMG Labtech), excitation 360 nm, emission 460 nm. The rate of the linear phase of the reaction, typically 5 to 45 minutes, was calculated in MARS data analysis software (BMG labtech). The rate was then used to calculate the IC50 and Ki in Prism (GraphPad). A four parameter inhibition non-linear regression equation was used to calculate the IC50. […]
(§2) Peptides were dissolved as the TFA-salts in their powder form, and stock solutions were usually prepared in water. All solutions were centrifuged and filtered ([…] syringe filters) prior to absorption measurement at 280 nm. Extinction coefficients were calculated based on the Trp/Tyr content of the peptide, and that of TMB (the TMB core, when contained in a peptide, has an extinction coefficient of ˜300 M^−1 cm^−1).

rabbit kallikrein = rabbit kallikrein (Oryctolagus cuniculus, UniProt G1T127); test: Functional enzyme assay, inhibition of rabbit kallikrein; type: biochemical
Chain of rabbit kallikrein (G1T127 20-629): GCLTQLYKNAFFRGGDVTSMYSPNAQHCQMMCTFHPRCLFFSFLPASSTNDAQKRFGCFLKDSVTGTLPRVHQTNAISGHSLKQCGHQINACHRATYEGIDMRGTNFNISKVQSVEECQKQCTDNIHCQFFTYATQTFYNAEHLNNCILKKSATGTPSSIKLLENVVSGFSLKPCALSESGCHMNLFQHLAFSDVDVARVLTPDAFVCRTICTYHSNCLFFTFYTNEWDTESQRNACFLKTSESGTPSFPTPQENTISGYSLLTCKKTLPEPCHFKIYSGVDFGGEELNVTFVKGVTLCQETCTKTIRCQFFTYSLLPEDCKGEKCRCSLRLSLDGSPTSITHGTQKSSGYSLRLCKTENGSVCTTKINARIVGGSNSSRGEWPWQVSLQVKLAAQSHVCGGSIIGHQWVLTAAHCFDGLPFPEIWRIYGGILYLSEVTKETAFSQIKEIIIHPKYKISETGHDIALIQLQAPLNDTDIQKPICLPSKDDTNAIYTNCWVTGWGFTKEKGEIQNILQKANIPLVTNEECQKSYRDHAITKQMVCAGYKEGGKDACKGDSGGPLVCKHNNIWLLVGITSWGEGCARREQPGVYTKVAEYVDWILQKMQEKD
Description: as §1, §2

rat plasma kallikrein = molecular target: T3, rat plasma kallikrein (Rattus norvegicus, UniProt P14272); test: Functional enzyme assay, inhibition of rat plasma kallikrein (Z-PheArg-AMC substrate); type: biochemical; details: Table 1, synthetic peptides; read-out: Rat (Ki)
T3 construct: polyhistidine tag followed by proTEV cleavage site (pro-peptide) (N, cleaved yes); made in house; host or cells: HEK-293 (suspension-adapted), pEXPR-IBA42 vector
T3 sequence (P14272 391-638 limits assumed): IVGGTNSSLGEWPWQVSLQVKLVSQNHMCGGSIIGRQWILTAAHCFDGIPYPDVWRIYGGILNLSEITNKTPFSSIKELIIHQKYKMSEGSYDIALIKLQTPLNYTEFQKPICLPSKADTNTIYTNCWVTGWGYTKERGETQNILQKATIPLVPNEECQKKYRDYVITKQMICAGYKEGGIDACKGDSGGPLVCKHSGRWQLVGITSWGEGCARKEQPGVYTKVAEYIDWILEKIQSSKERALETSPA
Description: as §1, §2

[2] = Table 3, 06-254 affinity-matured library
[3] = Table 1, synthetic peptides, read-out: Human (Ki)

CC[C@H](C)[C@@H]1NC(=O)[C@H](CC(C)C)NC(=O)[C@H](CC(=O)O)NC(=O)[C@@H]2CSCc3cc(cc(c3)CSC[C@@H](C(=O)N[C@@H](C)C(N)=O)NC(=O)[C@H]([C@@H](C)O)NC(=O)[C@H]([C@@H](C)O)NC(=O)[C@H](CCC(=O)O)NC1=O)CSC[C@H](NC(=O)[C@H](C)N)C(=O)N[C@@H](CCCCN)C(=O)N[C@@H](CC(N)=O)C(=O)N[C@@H](Cc1ccc(O)cc1)C(=O)N[C@@H](Cc1c[nH]c3ccccc13)C(=O)N[C@@H](CC(N)=O)C(=O)N1CCC[C@H]1C(=O)N2 [06-254-01] (H-ACKNYWNPCDLIETTCA-NH2; linker 2-9-16 via TBMB; N-terminus and C-terminus assumed)
S:B (Signal:Background) [1, 2]: 61.90

CC[C@H](C)[C@@H]1NC(=O)[C@H](CC(C)C)NC(=O)[C@H](CC(=O)O)NC(=O)[C@@H]2CSCc3cc(cc(c3)CSC[C@@H](C(=O)N[C@@H](C)C(N)=O)NC(=O)[C@@H]3CCCN3C(=O)CNC(=O)[C@@H]3CCCN3C1=O)CSC[C@H](NC(=O)[C@H](C)N)C(=O)N[C@@H](CCCCN)C(=O)N[C@@H](CC(N)=O)C(=O)N[C@@H](Cc1ccc(O)cc1)C(=O)N[C@@H](Cc1c[nH]c3ccccc13)C(=O)N[C@@H](CC(N)=O)C(=O)N1CCC[C@H]1C(=O)N2 [06-254-02] (H-ACKNYWNPCDLIPGPCA-NH2; linker 2-9-16 via TBMB; N-terminus assumed)
S:B (Signal:Background) [1, 2]: 46.65 | Ki (human plasma kallikrein; Table 5, read-out: Human (Ki)): 0.5 nM

CSCC[C@@H]1NC(=O)[C@H](C(C)C)NC(=O)[C@H](CC(C)C)NC(=O)[C@H](CC(=O)O)NC(=O)[C@@H]2CSCc3cc(cc(c3)CSC[C@@H](C(=O)N[C@@H](C)C(N)=O)NC(=O)[C@H]([C@@H](C)O)NC(=O)[C@H](CC(=O)O)NC1=O)CSC[C@H](NC(=O)[C@H](C)N)C(=O)N[C@@H](CCCCN)C(=O)N[C@@H](CC(N)=O)C(=O)N[C@@H](Cc1ccc(O)cc1)C(=O)N[C@@H](Cc1c[nH]c3ccccc13)C(=O)N[C@@H](CC(N)=O)C(=O)N1CCC[C@H]1C(=O)N2 [06-254-03] (H-ACKNYWNPCDLVMDTCA-NH2; linker 2-9-16 via TBMB; N-terminus and C-terminus assumed)
S:B (Signal:Background) [1, 2]: 56.70 | Ki (human plasma kallikrein; Table 5, read-out: Human (Ki)): 1.4 nM

CC(C)[C@@H]1NC(=O)[C@H](CCCNC(=N)N)NC(=O)[C@@H]2CSCc3cc(cc(c3)CSC[C@@H](C(=O)N[C@@H](C)C(N)=O)NC(=O)[C@H](Cc3ccc(O)cc3)NC(=O)[C@H](CCCNC(=N)N)NC(=O)[C@H]([C@@H](C)O)NC(=O)[C@H](CC(=O)O)NC1=O)CSC[C@H](NC(=O)[C@H](C)N)C(=O)N[C@@H](CCC(N)=O)C(=O)N[C@@H](CCCCN)C(=O)N[C@@H](Cc1ccccc1)C(=O)N[C@@H](CCC(=O)O)C(=O)N[C@@H](CO)C(=O)N[C@@H](CCCNC(=N)N)C(=O)N2 [06-256] (H-ACQKFESRCRVDTRYCA-NH2; linker 2-9-16 via TBMB; N-terminus assumed)
Ki (rabbit kallikrein; Table 1, synthetic peptides, read-out: Rabbit (Ki)): 1460 nM | Ki (rabbit kallikrein; Table 5, read-out: Rabbit (Ki)): 1460 nM | Ki (human plasma kallikrein; [3]): 6.6 nM | Ki (rat plasma kallikrein): 2780 nM

CSCC[C@@H]1NC(=O)[C@H](CCCNC(=N)N)NC(=O)[C@H](CCCNC(=N)N)NC(=O)[C@H](Cc2ccc(O)cc2)NC(=O)[C@@H]2CSCc3cc(cc(c3)CSC[C@H](NC(=O)[C@H](C)N)C(=O)N3CCC[C@H]3C(=O)N[C@@H](CC(C)C)C(=O)N[C@@H](CO)C(=O)N[C@@H](CC(=O)O)C(=O)N[C@@H]([C@@H](C)O)C(=O)N[C@@H](CC(C)C)C(=O)N2)CSC[C@@H](C(=O)N[C@@H](C)C(N)=O)NC(=O)[C@@H]2CCCN2C(=O)[C@@H]2CCCN2C1=O [06-257] (H-ACPLSDTLCYRRMPPCA-NH2; linker 2-9-16 via TBMB; N-terminus assumed)
Ki (human plasma kallikrein; [3]): 36.1 nM | Ki (rat plasma kallikrein): 159 nM

CC(C)[C@@H]1NC(=O)[C@H](CO)NC(=O)[C@@H]2CSCc3cc(cc(c3)CSC[C@@H](C(=O)N[C@@H](C)C(N)=O)NC(=O)[C@H](C(C)C)NC(=O)[C@@H]3CCCN3C(=O)[C@@H]3CCCN3C(=O)[C@H](CCC(=O)O)NC1=O)CSC[C@H](NC(=O)[C@H](C)N)C(=O)N[C@@H](CC(N)=O)C(=O)N[C@@H](Cc1c[nH]cn1)C(=O)N[C@@H](Cc1c[nH]c3ccccc13)C(=O)N[C@@H](CC(N)=O)C(=O)N1CCC[C@H]1C(=O)N[C@@H](Cc1c[nH]c3ccccc13)C(=O)N2 [06-259-01] (H-ACNHWNPWCSVEPPVCA-NH2; linker 2-9-16 via TBMB; N-terminus assumed)
S:B (Signal:Background) ([1]; Table 4, 06-259 affinity-matured library): 51.67

CC(C)C[C@@H]1NC(=O)[C@@H]2CCCN2C(=O)[C@H](C)NC(=O)[C@H](CC(=O)O)NC(=O)[C@H](Cc2c[nH]c3ccccc23)NC(=O)[C@@H]2CCCN2C(=O)[C@@H]2CSCc3cc(cc(c3)CSC[C@@H](C(=O)N[C@@H](C)C(N)=O)NC1=O)CSC[C@H](NC(=O)[C@H](C)N)C(=O)N[C@@H](CC(N)=O)C(=O)N[C@@H](Cc1ccc(O)cc1)C(=O)N[C@@H](Cc1c[nH]c3ccccc13)C(=O)N[C@@H](CC(N)=O)C(=O)N1CCC[C@H]1C(=O)N[C@@H](Cc1c[nH]c3ccccc13)C(=O)N2 [06-259-04] (H-ACNYWNPWCPWDAPLCA-NH2; linker 2-9-16 via TBMB; N-terminus assumed)
Ki (human plasma kallikrein; Table 5, read-out: Human (Ki)): 3.4 nM

CC[C@H](C)[C@@H]1NC(=O)[C@H](CC(C)C)NC(=O)[C@H]([C@@H](C)O)NC(=O)[C@@H]2CSCc3cc(cc(c3)CSC[C@@H](C(=O)N[C@@H](C)C(=O)N(C)CC(=O)N(C)CC(=O)N(C)CC(=O)N[C@H](CCCNC(=N)N)C(=O)N[C@H](CCCNC(=N)N)C(N)=O)NC(=O)[C@H]([C@@H](C)O)NC(=O)[C@H]([C@@H](C)CC)NC(=O)[C@H](CC(N)=O)NC1=O)CSC[C@H](NC(C)=O)C(=O)N[C@@H](CCCNC(=N)N)C(=O)N[C@@H](CC(N)=O)C(=O)N[C@@H](Cc1ccc(O)cc1)C(=O)N[C@@H](Cc1c[nH]c3ccccc13)C(=O)N[C@@H](CC(N)=O)C(=O)N1CCC[C@H]1C(=O)N2 [Ac-(06-255)-Sar3-(DArg2)] (Ac-CRNYWNPCTLINITCA[Sar][Sar][Sar][dR][dR]-NH2; linker 1-8-15 via TBMB)
Ki (human plasma kallikrein): 1.2 nM

CC[C@H](C)[C@@H]1NC(=O)[C@H](CC(C)C)NC(=O)[C@H]([C@@H](C)O)NC(=O)[C@@H]2CSCc3cc(cc(c3)CSC[C@H](NC(C)=O)C(=O)N[C@@H](CCCNC(=N)N)C(=O)N[C@@H](CC(N)=O)C(=O)N[C@@H](Cc3ccc(O)cc3)C(=O)N[C@@H](Cc3c[nH]c4ccccc34)C(=O)N[C@@H](CC(N)=O)C(=O)N3CCC[C@H]3C(=O)N2)CSC[C@@H](C(N)=O)NC(=O)[C@H]([C@@H](C)O)NC(=O)[C@H]([C@@H](C)CC)NC(=O)[C@H](CC(N)=O)NC1=O [Ac-(06-255)] (Ac-CRNYWNPCTLINITC-NH2; linker 1-8-15 via TBMB; C-terminus assumed)
Ki (rabbit kallikrein): 342 nM

CC[C@H](C)[C@@H]1NC(=O)[C@H](CC(=O)O)NC(=O)[C@@H]2CCCN2C(=O)[C@H](Cc2ccc(O)cc2)NC(=O)[C@H](Cc2ccc(O)cc2)NC(=O)[C@H](C(C)C)NC(=O)[C@@H]2CSCc3cc(cc(c3)CSC[C@H](NC(C)=O)C(=O)N[C@@H](CO)C(=O)N[C@@H](Cc3ccccc3)C(=O)N3CC[C@H]3C(=O)N[C@@H](Cc3ccc(O)cc3)C(=O)N[C@@H](CCCCNC(=N)N)C(=O)N2)CSC[C@@H](C(N)=O)NC1=O [Ac-(06-550) Aze3 HArg5] (Ac-CSF[Aze]Y[hArg]CVYYPDIC-NH2; linker 1-7-14 via TBMB)
Ki (human plasma kallikrein): 0.5 nM
